# Results reported in patent US20170226139A1, “CRYSTALLINE SALTS OF (Z)-O-OCTADEC-9-EN-1-YL O,O-DIHYDROGEN PHOSPHOROTHIOATE” (priority 2013, published 2017).
# Read-outs that look alike come from different tables or passages of the source.
# Legend:
# [1] = system: male Rhesus macaque Animal Model of GI-ARS; assay: Survival after partial body irradiation, male Rhesus macaque Animal Model of GI-ARS; type: in vivo
# Method: Using a partial body irradiation (tibial sparing) animal model in the female C57BL/6 mice, we tested the survival advantages conferred by GMP Rx100.L-Lysine salt. As a result, when administered at 0.3 to 3 mg/kg/12 h×6 doses starting at +24 hours after exposure to 15.5 to 15.7 Gy from a ^137Cesium irradiator which otherwise reliably produces an LD70-90/10 (in 10 days, 70-90% mice die after irradiation), the mortality was reduced by 20% to 50%. When administered at 0.1 mg/kg/day×6 doses in a partial body irradiation Animal Model in 19 male Rhesus macaque, a 37% increase in survival at a normally LD70/34 dose of X-ray radiation was observed. By allometric scaling using body surface area, these lowest effective doses translate to 0.02 mg/kg/day and to 0.03 mg/kg/day in humans, respectively.
# These Animal Model studies were all conducted using partial body irradiation (PBI) with tibial bone marrow sparing except the earliest study which was performed with Total Abdominal Irradiation (TAI). The male Rhesus macaque model was developed by MacVittie. The female inbred murine PBI GI-ARS Animal Model was developed by the inventors. […] Differences in radiation sensitivity by gender in rodent species are well appreciated. We are not aware of PBI GI-ARS models other than these that meet criteria required to conduct a prospective, blinded, controlled, randomized study of efficacy.
# [2] = Subcutaneous and intravenous pharmacokinetics in healthy and irradiated Rhesus Macaques; type: in vivo
# Method: We performed a cross-over comparison of subcutaneous and intravenous pharmacokinetics of Rx100.L-Lysine in six healthy Rhesus Macaques and subcutaneous pharmacokinetic and Pharmacodynamics of Rx100.L-Lysine after a single irradiation in six Rhesus Macaques.
# Rhesus macaques (male, 3-5 kg) were administered vehicle control article (10 mM Histidine in sterile water for Injection, USP) or Rx100.Lysine salt as a single injection via subcutaneous injection or as an intravenous bolus as indicated in Table 32.
# Blood was collected at baseline (7-10 days prior to dose administration), pre-dose (within 30 minutes), 0.5, 1, 2, 4, 6, 8, 24, 48, 72, 96, and 120 hours after dosing for phases 1 and 2. The phase 3 (post-irradiation phase) blood was collected at baseline (7-10 days prior to dose administration), pre-dose (within 30 minutes), 0.5, 1, 2, 4, 6, 8, 24, 48, 72, and 96 hours after dosing. The dose in phase 3 was administered approximately 24 hours after exposure to 11.5 Gy Partial Body Irradiation. Samples, approximately 1.0 mL, were collected and maintained on wet ice in vials containing Di-Potassium EDTA until centrifugation. Samples were stored in a freezer set to maintain −70° C. to −90° C. until shipped on dry ice for analysis.
# Analysis was performed using qualified and validated Phoenix® WinNonlin® Software and RxBio™ SOP PRE-0030™, Phoenix® WinNonlin® Software for Statistical Analysis. The final data provided was imported into Phoenix® WinNonlin®. All data presented were generated using the validated Phoenix® WinNonlin® Software. Concentrations reported as BLOQ were treated as missing values for the purpose of this analysis. A non-compartmental pharmacokinetic analysis was performed for each subject separately for IV, SC, and SC+IR. The automatic terminal slope selector function was used along with nominal dose (1 mg/kg) with a dosing interval set at 120 hours since this was a single dose study. The terminal slope was selected from the last 3 quantifiable plasma concentrations for each subject (48-96 hours for the Phase 3 Irradiated subjects and 72-120 for all healthy subjects). Selected pharmacokinetic estimations are presented in Table 33, time of maximum concentration (Tmax (h)), maximum concentration observed (Cmax (ng/mL)), exposure or area under the concentration vs time curve (AUC (h*ng/mL)), volume of distribution (Vz_F ([…])), clearance (CL_F (mL/h/kg), and half-life (T½ or HL_Lambda_z (h)).
# [3] = system: male telemetered cynomolgus monkeys; assay: Cardiovascular safety pharmacology in telemetered monkeys; type: in vivo; conditions: SC 0.1, 0.5 and 2.0 mg/kg as the free acid
# Method: Four male telemetered cynomolgus monkeys were selected, and assigned via a Latin Square design to receive four doses of Rx100.lysine or vehicle via subcutaneous injection at doses of 0 (10 mM histidine in sterile water for injection, USP), 0.1, 0.5 and 2.0 mg/kg as the free acid. Parameters evaluated include clinical observations, body temperature, arterial pressure and ECG evaluations (PR, QT, QRS durations). QTc values were calculated based on data collected for each animal.
# physchem = conditions: thermodynamic from solid
# [4] = UC Davis 2011, Rhesus (♂), 0.1 mg/kg (q24 × 6), start +4, 11.5 Gy, non-GLP
# [5] = UC Davis 2011, Rhesus (♂), 0.1 mg/kg (q24 × 6), start +4, 11.5 Gy, non-GLP, vs vehicle
# [6] = SC 1 mg/kg about 24 h after 11.5 Gy, Average of 6 animals
# [7] = SC 1 mg/kg, healthy, Average of 6 animals
# [8] = male, rhesus monkey, plasma, iv, 1 mg/kg, IV 1 mg/kg, healthy, Average of 6 animals
# [9] = male, rhesus monkey, plasma, iv, 1 mg/kg, IV 1 mg/kg, healthy, individual animals (ID in c1)
# [10] = male, rhesus monkey, plasma, sc, 1 mg/kg, SC 1 mg/kg about 24 h after 11.5 Gy, Average of 6 animals
# [11] = male, rhesus monkey, plasma, sc, 1 mg/kg, SC 1 mg/kg, healthy, Average of 6 animals
smiles,measurement,setting,value
"CCCCCCCC/C=C\CCCCCCCCOP(O)(O)=S [Rx100, (Z)—O-octadec-9-en-1-yl O,O-dihydrogen phosphorothioate]","Survival Day 10, Rx100 arm (survivors/animals)",[1]; [4],2/9
same,"Survival Day ≧30, Rx100 arm (survivors/animals)",[1]; [4],6/9
same,Survival Advantage Day 10,[1]; [5],8%
same,Survival Advantage Day ≧30,[1]; [5],37%
"CCCCCCCC/C=C\CCCCCCCCOP(O)(O)=S [Rx100.L-Lysine, (Z)—O-octadec-9-en-1-yl O,O-dihydrogen phosphorothioate]",λz,"[2]; IV 1 mg/kg, healthy, Average of 6 animals",0.049 ± 0.020 h⁻¹
same,CL,[2]; [6],0.333 ± 0.12 mL/min/kg
same,Vd,[2]; [6],0.251 ± 0.091 L/kg
same,λz,[2]; [6],0.079 ± 0.006 h⁻¹
same,Vd,[2]; [7],0.26 ± 0.083 L/kg
same,λz,[2]; [7],0.066 ± 0.004 h⁻¹
same,F,[2]; SC post IR,0.89±0.2
same,clearance (CL),"[2]; SC post IR, 1 mg/kg",0.333 ± 0.12 mL/min/kg
same,volume of distribution (Vd),"[2]; SC post IR, 1 mg/kg",0.251 ± 0.091 L/kg
same,fraction absorbed after subcutaneous administration (F),"[2]; SC, healthy, versus IV",1.0±0.18
same,volume of distribution (Vd),"[2]; SC, healthy, single dose 1 mg/kg",0.26 ± 0.083 L/kg
same,AUC,[2]; [8],63200 ± 15100 ng·h/mL
same,Cmax,[2]; [8],18600 ± 1760 ng/mL
same,AUC(0-inf),"[2]; male, rhesus monkey, plasma, iv, 1 mg/kg, IV 1 mg/kg, healthy, Average of 6 animals, read-out: AUCINF",63200 ± 15100 ng·h/mL
same,clearance,"[2]; male, rhesus monkey, plasma, iv, 1 mg/kg, IV 1 mg/kg, healthy, Average of 6 animals, read-out: CL (converted)",0.283 mL/min/kg
same,half-life,"[2]; male, rhesus monkey, plasma, iv, 1 mg/kg, IV 1 mg/kg, healthy, Average of 6 animals, read-out: T1/2 (converted)",16.4 ± 7.29 h
same,Vd,"[2]; male, rhesus monkey, plasma, iv, 1 mg/kg, IV 1 mg/kg, healthy, Average of 6 animals, read-out: Vd",0.428 ± 0.29 L/kg
same,AUC,[2]; [9],73500 ng·h/mL
same,Cmax,[2]; [9],15900 ng/mL
same,AUC(0-inf),"[2]; male, rhesus monkey, plasma, iv, 1 mg/kg, IV 1 mg/kg, healthy, individual animals (ID in c1), read-out: AUCINF",73500 ng·h/mL
same,clearance,"[2]; male, rhesus monkey, plasma, iv, 1 mg/kg, IV 1 mg/kg, healthy, individual animals (ID in c1), read-out: CL (converted)",0.233 mL/min/kg
same,clearance,"[2]; male, rhesus monkey, plasma, iv, 1 mg/kg, IV, healthy, 1 mg/kg, read-out: clearance (CL) (converted)",0.283 mL/min/kg
same,AUC(0-inf),"[2]; male, rhesus monkey, plasma, iv, 1 mg/kg, IV, healthy, 1 mg/kg, read-out: exposure (AUCINF)",63200 ± 15100 ng·h/mL
same,half-life,"[2]; male, rhesus monkey, plasma, iv, 1 mg/kg, IV, healthy, 1 mg/kg, read-out: half-life (converted)",16.4 ± 7.29 h
same,Vd,"[2]; male, rhesus monkey, plasma, iv, 1 mg/kg, IV, healthy, 1 mg/kg, read-out: volume of distribution (Vd)",0.428 ± 0.29 L/kg
same,half-life,"[2]; male, rhesus monkey, plasma, iv, 1 mg/kg, IV, healthy, read-out: half-life, range of individual subjects",9.37 to 28.8 h
same,Cmax,"[2]; male, rhesus monkey, plasma, iv, 1 mg/kg, intravenous bolus, healthy",18600 ± 1760 ng/mL
same,AUC,[2]; [10],57300 ± 24200 ng·h/mL
same,Cmax,[2]; [10],3110 ± 887 ng/mL
same,Tmax,[2]; [10],4 ± 2 h
same,AUC(0-inf),"[2]; male, rhesus monkey, plasma, sc, 1 mg/kg, SC 1 mg/kg about 24 h after 11.5 Gy, Average of 6 animals, read-out: AUCINF",57300 ± 24200 ng·h/mL
same,half-life,"[2]; male, rhesus monkey, plasma, sc, 1 mg/kg, SC 1 mg/kg about 24 h after 11.5 Gy, Average of 6 animals, read-out: T1/2 (converted)",8.76 ± 0.621 h
same,half-life,"[2]; male, rhesus monkey, plasma, sc, 1 mg/kg, SC 1 mg/kg about 24 h after 11.5 Gy, individual animals (ID in c1), read-out: T1/2 (converted)",9.21 h
same,AUC,[2]; [11],63700 ± 21400 ng·h/mL
same,Cmax,[2]; [11],3130 ± 637 ng/mL
same,Tmax,[2]; [11],4 ± 2 h
same,AUC(0-inf),"[2]; male, rhesus monkey, plasma, sc, 1 mg/kg, SC 1 mg/kg, healthy, Average of 6 animals, read-out: AUCINF",63700 ± 21400 ng·h/mL
same,half-life,"[2]; male, rhesus monkey, plasma, sc, 1 mg/kg, SC 1 mg/kg, healthy, Average of 6 animals, read-out: T1/2 (converted)",10.5 ± 0.6 h
same,Cmax,"[2]; male, rhesus monkey, plasma, sc, 1 mg/kg, SC 1 mg/kg, healthy, individual animals (ID in c1)",2390 ng/mL
same,half-life,"[2]; male, rhesus monkey, plasma, sc, 1 mg/kg, SC 1 mg/kg, healthy, individual animals (ID in c1), read-out: T1/2 (converted)",10.6 h
same,Cmax,"[2]; male, rhesus monkey, plasma, sc, 1 mg/kg, SC post IR",3110 ± 887 ng/mL
same,Tmax,"[2]; male, rhesus monkey, plasma, sc, 1 mg/kg, SC post IR (~24 hours after 11.5 Gy Partial Body Irradiation), 1 mg/kg",4 ± 2 h
same,AUC(0-inf),"[2]; male, rhesus monkey, plasma, sc, 1 mg/kg, SC post IR, 1 mg/kg, read-out: exposure (AUCINF)",57300 ± 24200 ng·h/mL
same,half-life,"[2]; male, rhesus monkey, plasma, sc, 1 mg/kg, SC post IR, 1 mg/kg, read-out: half-life (converted)",8.76 ± 0.621 h
same,half-life,"[2]; male, rhesus monkey, plasma, sc, 1 mg/kg, SC, healthy, read-out: T½, range of individual subjects",9.67 to 10.7 h
same,AUC(0-inf),"[2]; male, rhesus monkey, plasma, sc, 1 mg/kg, SC, healthy, single dose 1 mg/kg, read-out: exposure (AUCINF)",63700 ± 21400 ng·h/mL
same,half-life,"[2]; male, rhesus monkey, plasma, sc, 1 mg/kg, SC, healthy, single dose 1 mg/kg, read-out: half-life (converted)",10.5 ± 0.6 h
same,half-life,"[2]; male, rhesus monkey, plasma, sc, 1 mg/kg, SC, irradiated animals, read-out: half-life, range of individual subjects",7.88 to 9.66 h
same,Cmax,"[2]; male, rhesus monkey, plasma, sc, 1 mg/kg, healthy, single dose 1 mg/kg",3130 ± 637 ng/mL
same,Tmax,"[2]; male, rhesus monkey, plasma, sc, 1 mg/kg, healthy, single dose 1 mg/kg, mean ± SD",4 ± 2 h
same,increase in survival,"[1]; 0.1 mg/kg/day×6 doses, 19 male Rhesus macaque, normally LD70/34 dose of X-ray radiation",37%
same,ECG intervals,[3],"no meaningful changes in PR, QRS, QT and QTc"
same,heart rate,[3],slight dose-dependent increase in heart rate
same,solubility,"physchem; simulated formulation solvent, aqueous with cosolvent or surfactant or cyclodextrin",> 43 mg/mL
same,solubility,physchem; water,> 48 mg/mL
